Test results: US20210121456A1, “USE OF METHYLNALTREXONE TO ATTENUATE TUMOR PROGRESSION” (Salix Pharmaceuticals, Inc., priority 2014, published 2021)

Key:
[1] = Plasma levels after oral administration; assay type: in vivo
Protocol: Methylnaltrexone is rapidly absorbed after oral administration from the stomach and bowel. Initial plasma levels of the drug are seen within 5-10 minutes of the administration of non-enteric coated compound.

colectomy patients = settings: more than 500 colectomy patients, two randomized clinical trials; cited from earlier work

C[N@+]1(CC2CC2)CC[C@]23c4c5ccc(O)c4O[C@H]2C(=O)CC[C@@]3(O)[C@H]1C5.[Br-] [MNTX, (R)—N-(cyclopropylmethyl) noroxymorphone methobromide]
plasma levels with an enteric coating which prevents gastric absorption ([1]; enteric coated, oral): lower plasma levels
time to initial plasma levels after oral administration ([1]; non-enteric coated compound): 5 to 10 min
safety and perioperative analgesia (colectomy patients): safely given
